Experimental data taken from patent US20220267260A1, “COMPOUNDS CONTAINING A SULFONIC GROUP AS KAT INHIBITORS” (Epizyme, Inc., priority 2016, published 2022).

Key:
KAT5 = target: T1, KAT5 (Homo sapiens, UniProt Q92993); assay: KAT5 enzyme inhibition assay (SAMDI mass spectrometry); format: biochemical; conditions: His-TEV-FL KAT5-Flag enzyme construct
T1 construct: His-TEV tag (N, cleaved yes); made in house

KAT6A = target: T2, KAT6A (Homo sapiens, UniProt Q92794); assay: KAT6A enzyme inhibition assay (SAMDI mass spectrometry); format: biochemical; conditions: His-TEV-KAT6A 501-784 enzyme construct
T2 construct: His-TEV tag (N, cleaved yes); made in house
T2 sequence (Q92794 with tags, fused parts or gaps): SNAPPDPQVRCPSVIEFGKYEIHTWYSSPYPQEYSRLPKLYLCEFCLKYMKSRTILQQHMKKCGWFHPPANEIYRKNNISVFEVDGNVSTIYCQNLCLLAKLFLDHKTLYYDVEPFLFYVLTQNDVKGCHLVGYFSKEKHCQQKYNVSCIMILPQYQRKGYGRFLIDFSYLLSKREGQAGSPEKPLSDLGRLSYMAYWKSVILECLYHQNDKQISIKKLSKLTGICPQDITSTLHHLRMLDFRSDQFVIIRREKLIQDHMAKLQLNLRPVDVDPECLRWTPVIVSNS

T1 sequence (Q92993 with tags, fused parts or gaps): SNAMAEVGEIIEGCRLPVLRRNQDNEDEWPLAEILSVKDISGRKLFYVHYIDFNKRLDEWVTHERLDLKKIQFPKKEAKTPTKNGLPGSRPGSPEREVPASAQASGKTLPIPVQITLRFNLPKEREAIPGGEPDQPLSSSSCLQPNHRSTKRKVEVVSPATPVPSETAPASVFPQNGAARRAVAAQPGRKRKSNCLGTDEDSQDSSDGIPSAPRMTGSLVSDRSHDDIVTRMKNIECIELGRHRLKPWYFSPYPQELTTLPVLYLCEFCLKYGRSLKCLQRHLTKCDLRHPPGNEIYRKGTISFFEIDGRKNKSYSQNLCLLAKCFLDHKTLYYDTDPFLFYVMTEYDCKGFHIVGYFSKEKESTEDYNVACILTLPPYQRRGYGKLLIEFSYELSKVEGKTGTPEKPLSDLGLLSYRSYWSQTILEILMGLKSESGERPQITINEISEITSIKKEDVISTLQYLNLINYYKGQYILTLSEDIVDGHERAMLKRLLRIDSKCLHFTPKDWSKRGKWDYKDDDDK

SMILES | IC50 (KAT5) | IC50 (KAT6A)
Cc1cc(-c2ccccc2)cc(C(=O)Nc2n[nH]c3ncccc23)c1F [Compound I-282] | 50 to 100 µM | 10 to 50 µM
Cn1cnc2c(C(=O)NNS(=O)(=O)C3CCCCC3)cc(-c3ccccc3)cc21 [Compound I-283] | > 100 µM | > 100 µM
Nc1ncc(-c2ccc(-c3ccccc3)cc2F)n1S(=O)(=O)c1ccccc1 [Compound I-284] | > 100 µM | > 100 µM
Cc1cc(C2CCCN(C)C2)cc(C(=O)NNS(=O)(=O)C2CCCCC2)c1F (stereo not shown) [Compound I-287] | > 100 µM | > 100 µM
Cc1nc(-c2ccccc2)cc(C(=O)NNS(=O)(=O)C2CCCCC2)c1F [Compound I-288] | 10 to 50 µM | 10 to 50 µM
C=CCn1nc(NNS(=O)(=O)c2ccccc2)c2ccccc21 [Compound I-290] | > 100 µM | > 100 µM
Cc1cnc(CNC(=O)c2cc(-c3ccccc3)cc(C)c2F)[nH]1 [Compound I-295] | > 100 µM | > 100 µM
COCCN1CCCC(CS(=O)(=O)NNC(=O)c2cc(-c3ccccc3)cc(C)c2F)C1 (stereo not shown) [Compound I-297] | 10 to 50 µM | ≤ 10 µM
Cc1cc(Cl)cc(C(=O)NNS(=O)(=O)C2CCCCC2)c1F [Compound I-299] | 10 to 50 µM | 50 to 100 µM
CCc1cc(C)c(F)c(C(=O)NNS(=O)(=O)C2CCCCC2)c1 [Compound I-300] | 10 to 50 µM | 50 to 100 µM
Cc1cccc(-c2cc(C)c(F)c(C(=O)NNS(=O)(=O)C3CCCCC3)c2)c1 [Compound I-301] | 10 to 50 µM | 50 to 100 µM
COc1ccccc1-c1cc(C)c(F)c(C(=O)NNS(=O)(=O)C2CCCCC2)c1 [Compound I-302] | 50 to 100 µM | 50 to 100 µM
CC(=O)N1CC(CS(=O)(=O)NNC(=O)c2cc(-c3ccccc3)cc(C)c2F)C1 [Compound I-303] | 10 to 50 µM | ≤ 10 µM
COc1ccccc1-c1cc(C)c(F)c(C(=O)NNS(=O)(=O)c2ccccc2)c1 [Compound I-304] | 50 to 100 µM | ≤ 10 µM
O=C(NNS(=O)(=O)c1cccc(Cl)c1)c1c(F)ccc(-c2cn[nH]c2)c1F [Compound I-305] | > 100 µM | 10 to 50 µM
Cc1cc(-c2ccccc2)cc(C(=O)NNS(=O)(=O)C(C)C2CCN(C(=O)OC(C)(C)C)CC2)c1F (stereo not shown) [Compound I-307] | 10 to 50 µM | ≤ 10 µM
Cc1c(-c2ccccc2)ccc(Cl)c1C(=O)NNS(=O)(=O)C1CCCCC1 [Compound I-308] | 50 to 100 µM | > 100 µM
Cc1cc(-c2ccccc2)cc(C(=O)NNc2ncccn2)c1F [Compound I-309] | > 100 µM | > 100 µM
COCC(=O)N1CC(CS(=O)(=O)NNC(=O)c2cc(-c3ccccc3)cc(C)c2F)C1 [Compound I-310] | 10 to 50 µM | ≤ 10 µM
COc1c(C)cc(-c2ccccc2)cc1C(=O)NNS(=O)(=O)C1CCCCC1 [Compound I-311] | > 100 µM | > 100 µM
O=C(NNS(=O)(=O)C1CCCCC1)c1c(F)ccc(-c2ccccc2)c1Cl [Compound I-312] | > 100 µM | > 100 µM
Cc1cc(-c2ccccc2)cc(C(=O)NNS(=O)(=O)C(C)C2CCCNC2)c1F (stereo not shown) [Compound I-314] | > 100 µM | > 100 µM
COc1cc(-c2ccccc2)cc(C(=O)NNS(=O)(=O)C2CCCCC2)c1F [Compound I-315] | 10 to 50 µM | 10 to 50 µM
Cc1c(C(=O)NNS(=O)(=O)c2cccc(Cl)c2)cnn1-c1ccccc1 [Compound I-316] | > 100 µM | > 100 µM
Cc1cc(-c2ccccc2Cl)cc(C(=O)NNS(=O)(=O)C2CCCCC2)c1F [Compound I-318] | 50 to 100 µM | 50 to 100 µM
Cc1cc(-c2ccc(F)cc2)cc(C(=O)NNS(=O)(=O)C2CCCCC2)c1F [Compound I-319] | 10 to 50 µM | 50 to 100 µM
Cc1cc(-c2ccccc2)cc(C(=O)NNS(=O)(=O)CC2CCNC2)c1F (stereo not shown) [Compound I-320] | 10 to 50 µM | 10 to 50 µM
CNCCC(=O)N1CCCC(CS(=O)(=O)NNC(=O)c2cc(-c3cccc(F)c3)cc(C)c2F)C1 (stereo not shown) [Compound I-328] | 10 to 50 µM | 10 to 50 µM
Cc1cc(-c2cccc(F)c2)cc(C(=O)NNS(=O)(=O)CC2CCCN(C(=O)CCN(C)C)C2)c1F (stereo not shown) [Compound I-329] | 10 to 50 µM | 10 to 50 µM
CC(=O)N1CCCC(CS(=O)(=O)NNC(=O)c2cc(-c3cccc(F)c3)cc(C)c2F)C1 (stereo not shown) [Compound I-330] | ≤ 10 µM | ≤ 10 µM

Further lines, results first:

IC50 (KAT5) | IC50 (KAT6A) | SMILES
≤ 10 µM | ≤ 10 µM | Cc1cc(-c2ccccc2)cc(C(=O)NNS(=O)(=O)CC2CCCN(C(=O)C(C)(C)C)C2)c1F (stereo not shown) [Compound I-281]
≤ 10 µM | ≤ 10 µM | Cc1cc(-c2cccc(F)c2)cc(C(=O)NNS(=O)(=O)CC2CCCN(C(=O)OC(C)(C)C)C2)c1F (stereo not shown) [Compound I-285]
≤ 10 µM | ≤ 10 µM | COCC(=O)N1CCCC(CS(=O)(=O)NNC(=O)c2cc(-c3cccc(F)c3)cc(C)c2F)C1 (stereo not shown) [Compound I-289]
≤ 10 µM | ≤ 10 µM | Cc1nc(-c2cccc(F)c2)cc(C(=O)NNS(=O)(=O)CC2CCCN(C(=O)C3CCC3)C2)c1F (stereo not shown) [Compound I-291]
≤ 10 µM | ≤ 10 µM | Cc1cc(-c2cccc(F)c2)cc(C(=O)NNS(=O)(=O)CC2CCCN(C(=O)C(C)C)C2)c1F (stereo not shown) [Compound I-292]
≤ 10 µM | 50 to 100 µM | Cc1cc(Br)cc(C(=O)NNS(=O)(=O)C2CCCCC2)c1F [Compound I-293]
≤ 10 µM | ≤ 10 µM | Cc1cc(-c2cccc(F)c2)cc(C(=O)NNS(=O)(=O)CC2CCCN(C(=O)C(C)(C)C)C2)c1F (stereo not shown) [Compound I-294]
≤ 10 µM | 10 to 50 µM | COc1cccc(-c2cc(C)c(F)c(C(=O)NNS(=O)(=O)CC3CCCCC3)c2)c1 [Compound I-298]
≤ 10 µM | ≤ 10 µM | O=C(NNS(=O)(=O)C1CCCCC1)c1cc(-c2ccccc2)cc(Cl)c1F [Compound I-306]
≤ 10 µM | 10 to 50 µM | Cc1cc(-c2ccccc2)cc(C(=O)NNS(=O)(=O)C(C)C2CCCN(C(=O)OC(C)(C)C)C2)c1F (stereo not shown) [Compound I-313]
≤ 10 µM | 10 to 50 µM | Cc1cc(-c2cc(F)cc(F)c2)cc(C(=O)NNS(=O)(=O)C2CCCCC2)c1F [Compound I-317]
≤ 10 µM | 10 to 50 µM | Cc1cc(-c2ccccc2F)cc(C(=O)NNS(=O)(=O)C2CCCCC2)c1F [Compound I-321]
≤ 10 µM | ≤ 10 µM | CC(=O)N1CCCC(CS(=O)(=O)NNC(=O)c2cc(-c3ccccc3)cc(C)c2F)C1 (stereo not shown) [Compound I-322]
≤ 10 µM | ≤ 10 µM | Cc1cc(-c2cccc(F)c2)cc(C(=O)NNS(=O)(=O)C2CCCCC2)c1F [Compound I-323]
≤ 10 µM | 10 to 50 µM | Cc1cccc(-c2cc(C)c(F)c(C(=O)NNS(=O)(=O)C3CCCCC3)c2)c1 [Compound I-325]
≤ 10 µM | ≤ 10 µM | Cc1cccc(-c2cc(C)c(F)c(C(=O)NNS(=O)(=O)c3ccccc3)c2)c1 [Compound I-326]
≤ 10 µM | ≤ 10 µM | Cc1cc(-c2cccc(F)c2)cc(C(=O)NNS(=O)(=O)CC2CCN(C(=O)CCN(C)C(=O)OC(C)(C)C)CC2)c1F [Compound I-327]
